Measurements taken from US12281149B2, “Modulators of G-protein coupled receptors” (priority 2021, dated 2025).

Tests used:
Type in all cases: cell-based
[1] = target: T1, GLP-1 receptor (Homo sapiens, UniProt P43220); assay: HitHunter cAMP assay, GLP-1 receptor; details: for EC50: CHO cells stably expressing human GLP-1 receptor, cAMP accumulation, 30 min, read-out: EC50 GLP-1R; for Emax: CHO cells, cAMP, normalized to maximum signal from GLP-1 (high) and DMSO (low), read-out: Emax GLP-1R
[2] = target: T2, GIP receptor (Homo sapiens, UniProt P48546); assay: HitHunter cAMP assay, GIP receptor; details: for EC50: CHO cells stably expressing GIP receptor, cAMP accumulation, 30 min, read-out: EC50 GIP-1R; for Emax: CHO cells, cAMP, normalized to maximum signal from GIP (high) and DMSO (low), read-out: Emax GIP-1R
T2 sequence (P48546 22-466): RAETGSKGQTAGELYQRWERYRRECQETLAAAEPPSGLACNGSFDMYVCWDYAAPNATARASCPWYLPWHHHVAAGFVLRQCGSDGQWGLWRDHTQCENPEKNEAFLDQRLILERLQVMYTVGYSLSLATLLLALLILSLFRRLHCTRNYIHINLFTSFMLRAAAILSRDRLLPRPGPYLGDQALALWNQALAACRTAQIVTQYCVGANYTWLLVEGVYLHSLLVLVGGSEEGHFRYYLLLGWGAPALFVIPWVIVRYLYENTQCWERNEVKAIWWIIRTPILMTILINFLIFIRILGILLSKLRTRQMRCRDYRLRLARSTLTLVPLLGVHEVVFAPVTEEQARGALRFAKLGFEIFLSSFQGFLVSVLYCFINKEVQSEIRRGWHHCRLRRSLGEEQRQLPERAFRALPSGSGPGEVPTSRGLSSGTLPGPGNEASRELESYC

[3] = target: T2, GIP receptor; assay: PathHunter β-arrestin assay, GIP receptor; parameters: host or cells: PathHunter CHO-K1 GIPR β-Arrestin Cell Line; details: β-arrestin-2 recruitment, PathHunter CHO-K1 GIPR β-Arrestin Cell Line, 90 min at 37° C.; normalized to GIP; read-out: GIPR β Arrestin EC50
[4] = target: T1, GLP-1 receptor; assay: PathHunter β-arrestin assay, GLP-1 receptor; parameters: host or cells: PathHunter CHO-K1 GLP1R β-Arrestin Cell Line; details: β-arrestin-2 recruitment, PathHunter CHO-K1 GLP1R β-Arrestin Cell Line, 90 min at 37° C.; normalized to GLP-1; read-out: GLP-1R β Arrestin EC50

T1 sequence (P43220 24-463): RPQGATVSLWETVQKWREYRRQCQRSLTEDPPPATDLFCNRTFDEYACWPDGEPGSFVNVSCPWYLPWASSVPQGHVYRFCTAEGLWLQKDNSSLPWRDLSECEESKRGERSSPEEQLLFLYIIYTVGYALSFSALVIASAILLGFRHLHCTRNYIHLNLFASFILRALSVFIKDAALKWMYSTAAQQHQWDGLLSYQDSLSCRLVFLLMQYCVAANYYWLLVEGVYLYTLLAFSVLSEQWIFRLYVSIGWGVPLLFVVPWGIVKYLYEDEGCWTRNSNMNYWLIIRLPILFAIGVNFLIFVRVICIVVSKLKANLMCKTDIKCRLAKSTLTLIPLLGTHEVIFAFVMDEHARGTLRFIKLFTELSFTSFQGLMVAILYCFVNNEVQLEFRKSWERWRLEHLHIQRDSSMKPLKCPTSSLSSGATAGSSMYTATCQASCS

Row | Structure (SMILES) | EC50 [1] [µM] | Emax [1] [%] | EC50 [2] [µM] | Emax [2] [%] | EC50 [3] [µM] | EC50 [4] [µM]
1 | CC[C@H](C)[C@H](NC(=O)[C@H](CO)NC(=O)[C@H](Cc1ccc(O)cc1)NC(=O)[C@H](CC(=O)O)NC(=O)[C@H](CO)NC(=O)[C@@H](NC(=O)[C@H](Cc1ccccc1)NC(=O)[C@@H](NC(=O)CNC(=O)[C@H](CCC(=O)O)NC(=O)CCNC(=O)[C@@]1(c2ccccc2)CNC(=O)C1)[C@@H](C)O)[C@@H](C)O)C(=O)N[C@@H](Cc1ccc(O)cc1)C(=O)N[C@@H](CC(C)C)C(=O)N[C@@H](CC(=O)O)C(=O)N[C@@H](CCCCN)C(=O)N[C@@H](CCC(N)=O)C(=O)N[C@@H](C)C(=O)N[C@@H](C)C(=O)N[C@@H](CCCCNC(=O)COCCOCCNC(=O)COCCOCCNC(=O)CC[C@H](NC(=O)CCCCCCCCCCCCCCCCCCC(=O)O)C(=O)O)C(=O)N[C@@H](CCC(=O)O)C(=O)N[C@@H](Cc1ccccc1)C(=O)N[C@H](C(=O)N[C@@H](CC(N)=O)C(=O)N[C@@H](Cc1c[nH]c2ccccc12)C(=O)N[C@@H](CC(C)C)C(=O)N[C@@H](CC(C)C)C(=O)N[C@@H](C)C(=O)NCC(=O)NCC(=O)N1CCC[C@H]1C(=O)N[C@@H](CO)C(=O)N[C@@H](CO)C(=O)NCC(=O)N[C@@H](C)C(=O)N1CCC[C@H]1C(=O)N1CCC[C@H]1C(=O)N1CCC[C@H]1C(=O)N[C@@H](CO)C(N)=O)C(C)C (single isomer, unassigned) [Compound 124] | 0.01 to 0.1 | 97 | 0.01 to 0.1 | 102 | > 1 | > 1
2 | CC[C@H](C)[C@H](NC(=O)[C@H](CO)NC(=O)[C@H](Cc1ccc(O)cc1)NC(=O)[C@H](CC(=O)O)NC(=O)[C@H](CO)NC(=O)[C@@H](NC(=O)[C@H](Cc1ccccc1)NC(=O)[C@@H](NC(=O)CNC(=O)[C@H](CCC(=O)O)NC(=O)CCNC(=O)[C@@]1(c2ccccc2)CNC(=O)C1)[C@@H](C)O)[C@@H](C)O)C(=O)N[C@@H](Cc1ccc(O)cc1)C(=O)N[C@@H](CC(C)C)C(=O)N[C@@H](CC(=O)O)C(=O)N[C@@H](CCCCN)C(=O)N[C@@H](CCC(N)=O)C(=O)N[C@@H](C)C(=O)N[C@@H](C)C(=O)NC(C)(C)C(=O)N[C@@H](CCC(=O)O)C(=O)N[C@@H](Cc1ccccc1)C(=O)N[C@H](C(=O)N[C@@H](CC(N)=O)C(=O)N[C@@H](Cc1c[nH]c2ccccc12)C(=O)N[C@@H](CC(C)C)C(=O)N[C@@H](CC(C)C)C(=O)N[C@@H](C)C(=O)NCC(=O)NCC(=O)N1CCC[C@H]1C(=O)N[C@@H](CO)C(=O)N[C@@H](CO)C(=O)NCC(=O)N[C@@H](C)C(=O)N1CCC[C@H]1C(=O)N1CCC[C@H]1C(=O)N1CCC[C@H]1C(=O)N[C@@H](CO)C(=O)N[C@@H](CCCCNC(=O)COCCOCCNC(=O)COCCOCCNC(=O)CC[C@H](NC(=O)CCCCCCCCCCCCCCCCCCC(=O)O)C(=O)O)C(N)=O)C(C)C (single isomer, unassigned) [Compound 125] | 0.01 to 0.1 | 101 | 0.01 to 0.1 | 105 | > 1 | > 1
3 | CC[C@H](C)[C@H](NC(=O)[C@H](CO)NC(=O)[C@H](Cc1ccc(O)cc1)NC(=O)[C@H](CC(=O)O)NC(=O)[C@H](CO)NC(=O)[C@@H](NC(=O)[C@H](Cc1ccccc1)NC(=O)[C@@H](NC(=O)CNC(=O)[C@H](CCC(=O)O)NC(=O)CCNC(=O)[C@]1(c2ccccc2)CNC(=O)C1)[C@@H](C)O)[C@@H](C)O)C(=O)N[C@@H](Cc1ccc(O)cc1)C(=O)N[C@@H](CC(C)C)C(=O)N[C@@H](CC(=O)O)C(=O)N[C@@H](CCCCN)C(=O)N[C@@H](CCC(N)=O)C(=O)N[C@@H](C)C(=O)N[C@@H](C)C(=O)N[C@@H](CCCCNC(=O)COCCOCCNC(=O)COCCOCCNC(=O)CC[C@H](NC(=O)CCCCCCCCCCCCCCCCCCC(=O)O)C(=O)O)C(=O)N[C@@H](CCC(=O)O)C(=O)N[C@@H](Cc1ccccc1)C(=O)N[C@H](C(=O)N[C@@H](CC(N)=O)C(=O)N[C@@H](Cc1c[nH]c2ccccc12)C(=O)N[C@@H](CC(C)C)C(=O)N[C@@H](CC(C)C)C(=O)N[C@@H](C)C(=O)NCC(=O)NCC(=O)N1CCC[C@H]1C(=O)N[C@@H](CO)C(=O)N[C@@H](CO)C(=O)NCC(=O)N[C@@H](C)C(=O)N1CCC[C@H]1C(=O)N1CCC[C@H]1C(=O)N1CCC[C@H]1C(=O)N[C@@H](CO)C(N)=O)C(C)C (single isomer, unassigned) [Compound 128] | 0.001 to 0.01 | 99 | 0.01 to 0.1 | 101 | > 1 | > 1
4 | CC[C@H](C)[C@H](NC(=O)[C@H](CO)NC(=O)[C@H](CCCCNC(=O)COCCOCCNC(=O)COCCOCCNC(=O)CC[C@H](NC(=O)CCCCCCCCCCCCCCCCCCC(=O)O)C(=O)O)NC(=O)[C@H](CC(=O)O)NC(=O)[C@H](CO)NC(=O)[C@@H](NC(=O)[C@H](Cc1ccccc1)NC(=O)[C@@H](NC(=O)CNC(=O)[C@H](CCC(=O)O)NC(=O)CCNC(=O)[C@]1(c2ccccc2)CNC(=O)C1)[C@@H](C)O)[C@@H](C)O)C(=O)N[C@@H](Cc1ccc(O)cc1)C(=O)N[C@@H](CC(C)C)C(=O)N[C@@H](CC(=O)O)C(=O)N[C@@H](CCCCN)C(=O)N[C@@H](CCC(N)=O)C(=O)N[C@@H](C)C(=O)N[C@@H](C)C(=O)NC(C)(C)C(=O)N[C@@H](CCC(=O)O)C(=O)N[C@@H](Cc1ccccc1)C(=O)N[C@H](C(=O)N[C@@H](CC(N)=O)C(=O)N[C@@H](Cc1c[nH]c2ccccc12)C(=O)N[C@@H](CC(C)C)C(=O)N[C@@H](CC(C)C)C(=O)N[C@@H](C)C(=O)NCC(=O)NCC(=O)N1CCC[C@H]1C(=O)N[C@@H](CO)C(=O)N[C@@H](CO)C(=O)NCC(=O)N[C@@H](C)C(=O)N1CCC[C@H]1C(=O)N1CCC[C@H]1C(=O)N1CCC[C@H]1C(=O)N[C@@H](CO)C(N)=O)C(C)C (single isomer, unassigned) [Compound 129] | 0.001 to 0.01 | 108 | 0.01 to 0.1 | 106 | > 1 | > 1
5 | CC[C@H](C)[C@H](NC(=O)[C@H](CO)NC(=O)[C@H](Cc1ccc(O)cc1)NC(=O)[C@H](CC(=O)O)NC(=O)[C@H](CO)NC(=O)[C@@H](NC(=O)[C@H](Cc1ccccc1)NC(=O)[C@@H](NC(=O)CNC(=O)[C@H](CCC(=O)O)NC(=O)CCNC(=O)[C@]1(c2ccccc2)CNC(=O)C1)[C@@H](C)O)[C@@H](C)O)C(=O)N[C@@H](Cc1ccc(O)cc1)C(=O)N[C@@H](CC(C)C)C(=O)N[C@@H](CC(=O)O)C(=O)N[C@@H](CCCCN)C(=O)N[C@@H](CCC(N)=O)C(=O)N[C@@H](C)C(=O)N[C@@H](C)C(=O)NC(C)(C)C(=O)N[C@@H](CCC(=O)O)C(=O)N[C@@H](Cc1ccccc1)C(=O)N[C@H](C(=O)N[C@@H](CC(N)=O)C(=O)N[C@@H](Cc1c[nH]c2ccccc12)C(=O)N[C@@H](CC(C)C)C(=O)N[C@@H](CC(C)C)C(=O)N[C@@H](C)C(=O)NCC(=O)NCC(=O)N1CCC[C@H]1C(=O)N[C@@H](CO)C(=O)N[C@@H](CO)C(=O)NCC(=O)N[C@@H](C)C(=O)N1CCC[C@H]1C(=O)N1CCC[C@H]1C(=O)N1CCC[C@H]1C(=O)N[C@@H](CO)C(=O)N[C@@H](CCCCNC(=O)COCCOCCNC(=O)COCCOCCNC(=O)CC[C@H](NC(=O)CCCCCCCCCCCCCCCCCCC(=O)O)C(=O)O)C(N)=O)C(C)C (single isomer, unassigned) [Compound 130] | 0.001 to 0.01 | 107 | 0.001 to 0.01 | 106 | > 1 | > 1
6 | CC[C@H](C)[C@H](NC(=O)[C@H](CO)NC(=O)[C@H](Cc1ccc(O)cc1)NC(=O)[C@H](CC(=O)O)NC(=O)[C@H](CO)NC(=O)[C@@H](NC(=O)[C@H](Cc1ccccc1)NC(=O)[C@@H](NC(=O)CNC(=O)[C@H](CCC(=O)O)NC(=O)CCNC(=O)C1(n2cccn2)CCOC(C)C1)[C@@H](C)O)[C@@H](C)O)C(=O)N[C@@H](Cc1ccc(O)cc1)C(=O)N[C@@H](CC(C)C)C(=O)N[C@@H](CC(=O)O)C(=O)N[C@@H](CCCCN)C(=O)N[C@@H](CCC(N)=O)C(=O)N[C@@H](C)C(=O)N[C@@H](C)C(=O)NC(C)(C)C(=O)N[C@@H](CCC(=O)O)C(=O)N[C@@H](Cc1ccccc1)C(=O)N[C@H](C(=O)N[C@@H](CC(N)=O)C(=O)N[C@@H](Cc1c[nH]c2ccccc12)C(=O)N[C@@H](CC(C)C)C(=O)N[C@@H](CC(C)C)C(=O)N[C@@H](C)C(=O)NCC(=O)NCC(=O)N1CCC[C@H]1C(=O)N[C@@H](CO)C(=O)N[C@@H](CO)C(=O)NCC(=O)N[C@@H](C)C(=O)N1CCC[C@H]1C(=O)N1CCC[C@H]1C(=O)N1CCC[C@H]1C(=O)N[C@@H](CO)C(=O)N[C@@H](CCCCNC(=O)COCCOCCNC(=O)COCCOCCNC(=O)CC[C@H](NC(=O)CCCCCCCCCCCCCCCCCCC(=O)O)C(=O)O)C(N)=O)C(C)C (stereo partly drawn) [Compound 101] | 0.001 to 0.01 | 93 | 0.01 to 0.1 | 96 | > 1 | > 1
